Active and inactive are the calls of the source. No cut-off for these calls is given here.
Experiments:
[1] = Intrinsic clearance in human liver microsomes assessed as per mg of protein at 10 uM; type: ADME, Microsome; settings: read-out: CLH
[2] = target: Sigma non-opioid intracellular receptor 1 (Homo sapiens, UniProt Q99720); assay: biochemical
Description: Displacement of [3H](+)pentazocine from human sigma 1 receptor transfected in HEK293 cell membranes after 120 mins by scintillation counter

Mus musculus [3] = assay: Analgesic activity in CD1 mouse assessed as inhibition of capsaicin-induced mechanical hypersensitivity at 16 mg/kg, ip administered 15 mins prior to capsaicin challenge measured 30 mins post capsaicin challenge; type: functional; settings: route intraperitoneal
[4] = target: Voltage-gated inwardly rectifying potassium channel KCNH2 (Homo sapiens, UniProt Q12809)
Description: Inhibition of human ERG transfected in HEK293 cell membranes by whole cell patch clamp assay

[5] = Displacement of [3H]di-o-tolylguanidine from sigma 2 receptor in guinea pig brain membranes after 120 mins by scintillation counter; type: cell membranes, Cavia porcellus, Membrane
Mus musculus [6] = assay: Neurotoxicity in CD1 mouse assessed as motor impairment at 32 to 64 mg/kg, ip measured after 30 to 180 mins by rotarod test; type: toxicity, organism-based; set-up: route intraperitoneal; settings: in vivo
Mus musculus [7] = assay: Antiallodynic activity in CD1 mouse partial sciatic nerve ligation model assessed as inhibition of mechanical allodynia at 16 to 64 mg/kg, ip administered 30 mins by von Frey test; type: functional, organism-based
Mus musculus [8] = assay: Antihyperalgesic activity in CD1 mouse partial sciatic nerve ligation model assessed as inhibition of thermal hyperalgesia at 16 to 64 mg/kg, ip administered 45 mins by plantar test; type: functional, organism-based
Mus musculus [9] = assay: Inhibition of capsaicin-induced mechanical hypersensitivity in CD1 mouse assessed as paw withdrawal latency at 32 mg/kg, ip administered 15 mins prior to capsaicin challenge measured 30 mins post capsaicin challenge; type: functional; settings: route intraperitoneal

Chain of Voltage-gated inwardly rectifying potassium channel KCNH2 (Q12809 whole entry): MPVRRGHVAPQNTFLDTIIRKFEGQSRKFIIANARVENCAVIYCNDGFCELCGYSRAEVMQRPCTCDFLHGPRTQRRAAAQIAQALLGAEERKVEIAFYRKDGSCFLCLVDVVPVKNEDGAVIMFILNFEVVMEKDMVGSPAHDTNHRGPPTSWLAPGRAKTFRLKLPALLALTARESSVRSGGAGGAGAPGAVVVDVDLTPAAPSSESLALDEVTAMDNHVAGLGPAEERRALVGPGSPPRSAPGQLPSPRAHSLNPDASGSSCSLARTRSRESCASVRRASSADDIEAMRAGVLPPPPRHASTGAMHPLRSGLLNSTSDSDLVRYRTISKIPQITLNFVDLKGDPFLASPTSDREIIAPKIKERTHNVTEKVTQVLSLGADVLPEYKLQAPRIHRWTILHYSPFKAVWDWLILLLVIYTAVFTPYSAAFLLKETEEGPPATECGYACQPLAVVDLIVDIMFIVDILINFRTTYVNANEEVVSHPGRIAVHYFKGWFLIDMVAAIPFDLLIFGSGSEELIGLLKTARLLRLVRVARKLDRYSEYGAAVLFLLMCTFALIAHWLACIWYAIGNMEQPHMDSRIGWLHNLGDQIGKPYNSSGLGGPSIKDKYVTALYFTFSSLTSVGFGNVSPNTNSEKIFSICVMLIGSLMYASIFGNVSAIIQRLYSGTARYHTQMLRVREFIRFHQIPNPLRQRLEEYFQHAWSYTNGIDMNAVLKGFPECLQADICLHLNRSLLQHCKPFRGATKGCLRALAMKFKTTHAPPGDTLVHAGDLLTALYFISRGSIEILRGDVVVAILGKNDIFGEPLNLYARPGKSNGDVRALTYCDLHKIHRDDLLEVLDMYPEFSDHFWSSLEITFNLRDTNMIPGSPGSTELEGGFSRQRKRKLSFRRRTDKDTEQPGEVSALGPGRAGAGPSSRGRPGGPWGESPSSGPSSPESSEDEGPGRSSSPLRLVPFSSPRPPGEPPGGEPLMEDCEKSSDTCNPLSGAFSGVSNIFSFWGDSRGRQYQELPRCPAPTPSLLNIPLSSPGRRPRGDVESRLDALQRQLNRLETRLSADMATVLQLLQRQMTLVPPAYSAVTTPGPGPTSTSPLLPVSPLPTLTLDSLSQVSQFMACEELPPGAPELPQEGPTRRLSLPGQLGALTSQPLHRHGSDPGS
Chain of Sigma non-opioid intracellular receptor 1 (Q99720 whole entry): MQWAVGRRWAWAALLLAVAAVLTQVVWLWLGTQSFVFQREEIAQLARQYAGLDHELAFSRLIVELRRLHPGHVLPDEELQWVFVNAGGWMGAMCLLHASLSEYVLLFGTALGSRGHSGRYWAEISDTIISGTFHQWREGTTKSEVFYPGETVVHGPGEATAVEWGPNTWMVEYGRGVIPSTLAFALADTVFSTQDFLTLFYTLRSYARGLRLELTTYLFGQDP

SMILES | microsomal CLint at 10 µM [1] [µL/min/mg] | Ki [2] [nM] | Ki [5] [nM] | further results
CC(=O)C1CCN(CCOc2ccn(-c3ccc(Cl)c(Cl)c3)n2)CC1 | 7 | 7.2 | > 1000 | inhibition in vivo at 16 mg/kg (Mus musculus [3]): 73%; IC50 [4]: 4.5 µM
Cc1cc(OCCN2CCN(C)CC2)nn1-c1ccc(Cl)c(Cl)c1 | 3 | 11.1 | > 1000 | inhibition in vivo at 16 mg/kg (Mus musculus [3]): 27%; IC50 [4]: 7.4 µM
CCOC(=O)N1CCN(CCOc2cc(C)n(-c3ccc(Cl)c(Cl)c3)n2)CC1 | 26 | 44 | > 1000 | –
Cc1cc(OCCN2CCOCC2)nn1-c1ccc(Cl)cc1Cl | 25 | 44 | > 1000 | –
CC(C)C[C@H](CN)CC(=O)O [PREGABALIN] | – | – | – | Activity (Mus musculus [6]): Toxic; inhibition (Mus musculus [7]): Active; inhibition (Mus musculus [8]): Active
c1ccc2cc(-n3ccc(OCCN4CCOCC4)n3)ccc2c1 | 6 | 33.3 | > 1000 | inhibition in vivo at 32 mg/kg (Mus musculus [9]): 55%; IC50 [4]: > 10 µM
Cc1cc(OCCN2CCOCC2)nn1-c1ccc(Cl)c(Cl)c1 | 12 | – | > 1000 | inhibition in vivo at 16 mg/kg (Mus musculus [3]): 25%
Cc1cc(SCCN2CCOCC2)nn1-c1ccc(Cl)c(Cl)c1 | 37 | 14.2 | > 1000 | IC50 [4]: > 10 µM
Cc1cc(OCCN2C[C@@H](C)O[C@@H](C)C2)nn1-c1ccc2ccccc2c1 | 25 | 33.8 | > 1000 | IC50 [4]: 7.4 µM
CC(=O)c1c(OCCN2CCOCC2)nn(-c2ccc(Cl)c(Cl)c2)c1C | – | 741 | > 1000 | –
CCN(CC)CCOc1cc(C)n(-c2ccc3ccccc3c2)n1 | – | 47 | 589 | –
C[C@@H]1CN(CCCCOc2ccn(-c3ccc(Cl)c(Cl)c3)n2)C[C@H](C)O1 | – | 14.8 | 153 | –
Cc1cc(OCCN2CCCC2)nn1-c1ccc2ccccc2c1 | – | 9.9 | 395 | –
Clc1ccc(-n2nc(OCCN3CCOCC3)cc2-c2ccccc2)cc1Cl | – | 224 | > 1000 | –
Cc1cc(OCCN2CCCCC2)nn1-c1ccc2ccccc2c1 | – | 10 | 84.7 | –
COc1ccc(-n2nc(OCCN3CCOCC3)cc2C)cc1 | – | > 1000 | > 1000 | –
Cc1cc(OCCN2CCOCC2)nn1-c1ccccc1 | – | > 1000 | > 1000 | –

Reference: ChEMBL document CHEMBL2169838, “Synthesis and biological evaluation of the 1-arylpyrazole class of σ(1) receptor antagonists: identification of 4-{2-[5-methyl-1-(naphthalen-2-yl)-1H-pyrazol-3-yloxy]ethyl}morpholine (S1RA, E-52862)” (J Med Chem, 2012)
